Here are results for 12 molecules from ChEMBL document CHEMBL4002587 (Eur J Med Chem, 2017).

The target of one data set is Prothrombin (Homo sapiens, UniProt P00734). Nature of the data set: Inhibition of human thrombin preincubated for 10 mins followed by Ac-FVR-AMC substrate addition measured every 20s for 10 mins by fluorescence assay.
The next data set is filed under the species Rattus norvegicus. In words: Anti-thrombotic activity in Sprague-Dawley rat assessed as inhibition of arteriovenous thrombosis weight at 0.5 mg/ml relative to control. In kind it is functional.
Data set [1] is described as follows: Oral bioavailability in human at 10 to 400 mg administered as single dose measured after 24 hrs. In kind it is ADME, organism-based. As to conditions: in vivo.

`Cc1cc(N(CCC(=O)O)C(=O)c2ccc3c(c2)nc(CNc2ccc(C(=N)N)cc2F)n3C)ccc1F` had an IC50 on Prothrombin of 3.2 nM.
At Prothrombin, `Cc1cccc(C)c1N(CCC(=O)O)C(=O)c1ccc2c(c1)nc(CNc1ccc(C(=N)N)cc1F)n2C` showed an IC50 of 12.8 nM.
On the same count and under the same terms, under `Cc1ccc(C)c(N(CCC(=O)O)C(=O)c2ccc3c(c2)nc(CNc2ccc(C(=N)N)cc2F)n3C)c1` stands 3.35 nM.
Same read-out and setting: under `Cn1c(CNc2ccc(C(=N)N)cc2F)nc2cc(C(=O)N(CCC(=O)O)c3cc(F)cc(F)c3)ccc21` stands 1.18 nM.
On to `Cn1c(CNc2ccc(C(=N)N)cc2)nc2cc(C(=O)N(CCC(=O)O)c3ccccn3)ccc21` [DABIGATRAN], for which, in the data set filed under Rattus norvegicus, the “inhibition (INH)” value turned out to be 85.07%. This molecule also registered a bioavailability in data set [1] of 6.5%.
`Cc1cc(C)cc(N(CCC(=O)O)C(=O)c2ccc3c(c2)nc(CNc2ccc(C(=N)N)cc2F)n3C)c1`: the IC50 against Prothrombin was 3.7 nM.
For the molecule `Cc1cccc(N(CCC(=O)O)C(=O)c2ccc3c(c2)nc(CNc2ccc(C(=N)N)cc2F)n3C)n1`, in the data set filed under Rattus norvegicus, the “inhibition (INH)” value was 84.57%. The molecule also returned an IC50 against Prothrombin of 1.42 nM.
Consider `Cc1cccc(N(CCC(=O)O)C(=O)c2ccc3c(c2)nc(CNc2ccc(C(=N)N)cc2F)n3C)c1C`, for which the “inhibition (INH)” value in the data set filed under Rattus norvegicus is recorded as 84.24%. At Prothrombin, this molecule had an IC50 of 1.54 nM.
Regarding `Cn1c(CNc2ccc(C(=N)N)cc2F)nc2cc(C(=O)N(CCC(=O)O)c3ccc(F)c(F)c3)ccc21`, half-maximal inhibition on Prothrombin (IC50) was put at 14.6 nM.
In the case of `Cc1cccc(N(CCC(=O)O)C(=O)c2ccc3c(c2)nc(CNc2ccc(C(=N)N)cc2F)n3C)c1`, the IC50 on Prothrombin stood at 2.26 nM.
`Cc1ccnc(N(CCC(=O)O)C(=O)c2ccc3c(c2)nc(CNc2ccc(C(=N)N)cc2F)n3C)c1` came in with an IC50 at Prothrombin of 3.33 nM.
With `Cn1c(CNc2ccc(C(=N)N)cc2F)nc2cc(C(=O)N(CCC(=O)O)c3ccc(F)cc3F)ccc21`, the IC50 at Prothrombin is 0.84 nM. This IC50 is about 4-fold lower than that of the molecule before.
